Test results from ChEMBL document CHEMBL3632469, “Discovery of dihydroquinazolinone derivatives as potent, selective, and CNS-penetrant M(1) and M(4) muscarinic acetylcholine receptors agonists” (Bioorg Med Chem Lett, 2015).

Key:
[1] = molecular target: T1, Muscarinic acetylcholine receptor M2 (Homo sapiens) (UniProt P08172); assay: Agonist activity at human muscarinic M2 acetylcholine receptor expressed in CHO cells co-expressing Galpha16 assessed as calcium mobilization at 0.3 uM by FLIPR assay; assay type: functional, cell-based
T1 sequence (whole entry): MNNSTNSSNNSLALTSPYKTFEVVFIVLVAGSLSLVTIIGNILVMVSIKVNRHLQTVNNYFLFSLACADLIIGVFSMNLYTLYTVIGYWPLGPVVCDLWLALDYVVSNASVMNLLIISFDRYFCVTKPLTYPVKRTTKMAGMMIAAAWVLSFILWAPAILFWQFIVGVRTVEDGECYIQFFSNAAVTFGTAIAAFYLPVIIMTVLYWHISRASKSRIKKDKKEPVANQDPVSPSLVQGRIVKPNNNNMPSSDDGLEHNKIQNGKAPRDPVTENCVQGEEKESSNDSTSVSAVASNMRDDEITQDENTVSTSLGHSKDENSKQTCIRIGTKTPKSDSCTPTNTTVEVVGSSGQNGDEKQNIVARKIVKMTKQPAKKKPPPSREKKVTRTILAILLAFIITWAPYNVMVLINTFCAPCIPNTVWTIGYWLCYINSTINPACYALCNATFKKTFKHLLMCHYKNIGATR

[2] = molecular target: Muscarinic acetylcholine receptor M3 (Homo sapiens) (UniProt P20309); assay: Agonist activity at human muscarinic M3 acetylcholine receptor expressed in CHO cells assessed as calcium mobilization at 0.3 uM by FLIPR assay; assay type: functional, cell-based
[3] = molecular target: T2, Muscarinic acetylcholine receptor M4 (Homo sapiens) (UniProt P08173); assay: Partial agonist activity at human muscarinic M4 acetylcholine receptor expressed in CHO cells co-expressing Galpha16 assessed as calcium mobilization at 30 uM by FLIPR assay; assay type: functional, cell-based
T2 sequence (whole entry): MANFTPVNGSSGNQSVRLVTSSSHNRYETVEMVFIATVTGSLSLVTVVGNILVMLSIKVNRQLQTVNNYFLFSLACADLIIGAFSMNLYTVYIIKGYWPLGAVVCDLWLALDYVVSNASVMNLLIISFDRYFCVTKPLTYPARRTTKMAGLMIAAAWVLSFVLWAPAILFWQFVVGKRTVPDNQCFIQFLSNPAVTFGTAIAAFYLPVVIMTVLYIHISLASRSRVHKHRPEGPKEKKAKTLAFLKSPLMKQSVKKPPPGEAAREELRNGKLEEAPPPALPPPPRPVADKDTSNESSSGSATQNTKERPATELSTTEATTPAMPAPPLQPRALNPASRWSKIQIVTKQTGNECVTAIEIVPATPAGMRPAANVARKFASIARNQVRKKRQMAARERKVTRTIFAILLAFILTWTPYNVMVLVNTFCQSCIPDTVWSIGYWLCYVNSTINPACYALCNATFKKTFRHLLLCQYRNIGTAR

[4] = molecular target: Nuclear receptor subfamily 1 group I member 2 (Homo sapiens, UniProt O75469); assay: Induction of human PXR; assay type: ADME
[5] = molecular target: Muscarinic acetylcholine receptor M1 (Homo sapiens, UniProt P11229); assay: Agonist activity at human muscarinic M1 acetylcholine receptor expressed in CHO cells assessed as calcium mobilization by FLIPR assay; assay type: functional, cell-based
[6] = molecular target: T3, Muscarinic acetylcholine receptor M1 (Homo sapiens) (UniProt P11229); assay: Agonist activity at human muscarinic M1 acetylcholine receptor expressed in CHO cells assessed as calcium mobilization by FLIPR assay relative to control; assay type: functional, cell-based
T3 sequence (whole entry): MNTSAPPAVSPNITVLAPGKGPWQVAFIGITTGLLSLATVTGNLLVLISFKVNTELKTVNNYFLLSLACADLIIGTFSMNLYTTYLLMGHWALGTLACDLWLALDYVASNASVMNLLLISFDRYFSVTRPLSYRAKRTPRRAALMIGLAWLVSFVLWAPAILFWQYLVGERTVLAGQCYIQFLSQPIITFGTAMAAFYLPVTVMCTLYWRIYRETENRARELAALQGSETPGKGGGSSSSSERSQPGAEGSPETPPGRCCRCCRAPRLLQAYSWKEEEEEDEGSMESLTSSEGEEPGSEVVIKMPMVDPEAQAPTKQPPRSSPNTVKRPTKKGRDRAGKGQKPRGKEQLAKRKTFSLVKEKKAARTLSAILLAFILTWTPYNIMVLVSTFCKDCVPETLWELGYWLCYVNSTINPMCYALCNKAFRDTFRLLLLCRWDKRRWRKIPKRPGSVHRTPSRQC

[7] = molecular target: Muscarinic acetylcholine receptor M3 (Homo sapiens) (UniProt P20309); assay: Agonist activity at human muscarinic M3 acetylcholine receptor expressed in CHO cells assessed as calcium mobilization at 30 uM by FLIPR assay; assay type: functional, cell-based
[8] = molecular target: Adenosine receptor A2a (Homo sapiens) (UniProt P29274); assay: Agonist activity at adenosine a2a receptor (unknown origin) expressed in CHO cells assessed as calcium mobilization at 3 uM; assay type: functional, cell-based
[9] = molecular target: Alpha-1B adrenergic receptor (Homo sapiens) (UniProt P35368); assay: Agonist activity at adrenergic a1B receptor (unknown origin) expressed in CHO cells assessed as calcium mobilization at 3 uM; assay type: functional, cell-based
[10] = molecular target: Alpha-2A adrenergic receptor (Homo sapiens) (UniProt P08913); assay: Agonist activity at adrenergic a2a receptor (unknown origin) expressed in CHO cells assessed as calcium mobilization at 3 uM; assay type: functional, cell-based
[11] = molecular target: 5-hydroxytryptamine receptor 2A (Homo sapiens) (UniProt P28223); assay: Agonist activity at 5-HT2a receptor (unknown origin) expressed in CHO cells assessed as calcium mobilization at 3 uM; assay type: functional, cell-based
[12] = molecular target: 5-hydroxytryptamine receptor 6 (Homo sapiens) (UniProt P50406); assay: Agonist activity at 5-HT6 receptor (unknown origin) expressed in CHO cells assessed as calcium mobilization at 3 uM; assay type: functional, cell-based
[13] = molecular target: 5-hydroxytryptamine receptor 7 (Homo sapiens) (UniProt P34969); assay: Agonist activity at 5-HT7B receptor (unknown origin) expressed in CHO cells assessed as calcium mobilization at 3 uM; assay type: functional, cell-based
[14] = molecular target: Somatostatin receptor type 2 (Homo sapiens) (UniProt P30874); assay: Agonist activity at SSTR2 receptor (unknown origin) expressed in CHO cells assessed as calcium mobilization at 3 uM; assay type: functional, cell-based
[15] = molecular target: D(1B) dopamine receptor (Homo sapiens) (UniProt P21918); assay: Antagonist activity at dopamine D5 receptor (unknown origin) expressed in CHO cells assessed as calcium mobilization at 3 uM; assay type: functional, cell-based
[16] = molecular target: Cysteinyl leukotriene receptor 2 (Homo sapiens) (UniProt Q9NS75); assay: Antagonist activity at CysLT2 receptor (unknown origin) expressed in CHO cells assessed as calcium mobilization at 3 uM; assay type: functional, cell-based
[17] = molecular target: 5-hydroxytryptamine receptor 4 (Homo sapiens) (UniProt Q13639); assay: Antagonist activity at 5-HT4B receptor (unknown origin) expressed in CHO cells assessed as calcium mobilization at 3 uM; assay type: functional, cell-based
[18] = molecular target: 5-hydroxytryptamine receptor 5A (Homo sapiens) (UniProt P47898); assay: Antagonist activity at 5-HT5a receptor (unknown origin) expressed in CHO cells assessed as calcium mobilization at 3 uM; assay type: functional, cell-based
[19] = molecular target: 5-hydroxytryptamine receptor 6 (Homo sapiens) (UniProt P50406); assay: Antagonist activity at 5-HT6 receptor (unknown origin) expressed in CHO cells assessed as calcium mobilization at 3 uM; assay type: functional, cell-based
[20] = molecular target: P2Y purinoceptor 1 (Homo sapiens) (UniProt P47900); assay: Antagonist activity at P2Y1 receptor (unknown origin) expressed in CHO cells assessed as calcium mobilization at 3 uM; assay type: functional, cell-based
Sequence of P2Y purinoceptor 1 (Homo sapiens) (P47900 whole entry): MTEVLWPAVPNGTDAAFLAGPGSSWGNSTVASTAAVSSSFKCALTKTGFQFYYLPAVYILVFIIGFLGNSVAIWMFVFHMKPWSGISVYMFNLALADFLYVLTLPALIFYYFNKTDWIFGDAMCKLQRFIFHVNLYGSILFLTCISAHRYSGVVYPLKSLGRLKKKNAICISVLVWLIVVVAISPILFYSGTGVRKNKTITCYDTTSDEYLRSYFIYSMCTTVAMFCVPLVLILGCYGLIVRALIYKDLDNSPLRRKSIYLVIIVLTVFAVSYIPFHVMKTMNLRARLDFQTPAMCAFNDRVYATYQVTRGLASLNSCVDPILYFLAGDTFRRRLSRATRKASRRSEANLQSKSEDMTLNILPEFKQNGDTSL

Sequence of 5-hydroxytryptamine receptor 6 (Homo sapiens) (P50406 whole entry): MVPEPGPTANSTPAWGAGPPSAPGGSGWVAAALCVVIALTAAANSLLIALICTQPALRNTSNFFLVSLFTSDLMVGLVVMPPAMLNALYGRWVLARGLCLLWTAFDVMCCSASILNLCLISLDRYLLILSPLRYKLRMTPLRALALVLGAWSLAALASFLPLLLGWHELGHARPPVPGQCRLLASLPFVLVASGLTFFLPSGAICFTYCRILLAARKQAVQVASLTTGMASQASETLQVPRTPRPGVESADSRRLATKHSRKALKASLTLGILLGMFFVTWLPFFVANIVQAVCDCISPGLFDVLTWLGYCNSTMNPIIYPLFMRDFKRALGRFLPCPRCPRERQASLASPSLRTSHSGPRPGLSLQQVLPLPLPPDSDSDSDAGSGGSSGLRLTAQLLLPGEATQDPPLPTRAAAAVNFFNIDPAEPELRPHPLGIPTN
Sequence of Muscarinic acetylcholine receptor M3 (Homo sapiens) (P20309 whole entry, looked up): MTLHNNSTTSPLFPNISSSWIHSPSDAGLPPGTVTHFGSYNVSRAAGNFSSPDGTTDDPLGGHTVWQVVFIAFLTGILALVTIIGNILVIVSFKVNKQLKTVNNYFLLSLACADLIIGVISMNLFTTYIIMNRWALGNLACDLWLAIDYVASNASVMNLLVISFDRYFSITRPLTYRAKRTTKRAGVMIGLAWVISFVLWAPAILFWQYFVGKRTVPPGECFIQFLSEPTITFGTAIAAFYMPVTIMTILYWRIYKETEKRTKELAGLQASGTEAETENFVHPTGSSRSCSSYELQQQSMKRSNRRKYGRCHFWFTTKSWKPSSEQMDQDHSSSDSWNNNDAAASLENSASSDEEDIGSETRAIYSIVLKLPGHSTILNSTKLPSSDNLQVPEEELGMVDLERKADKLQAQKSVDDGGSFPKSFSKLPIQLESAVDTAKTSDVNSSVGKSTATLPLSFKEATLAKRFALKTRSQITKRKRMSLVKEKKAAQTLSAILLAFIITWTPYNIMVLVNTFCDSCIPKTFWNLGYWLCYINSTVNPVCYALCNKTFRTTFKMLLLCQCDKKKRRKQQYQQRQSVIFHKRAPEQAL
Sequence of 5-hydroxytryptamine receptor 7 (Homo sapiens) (P34969 whole entry): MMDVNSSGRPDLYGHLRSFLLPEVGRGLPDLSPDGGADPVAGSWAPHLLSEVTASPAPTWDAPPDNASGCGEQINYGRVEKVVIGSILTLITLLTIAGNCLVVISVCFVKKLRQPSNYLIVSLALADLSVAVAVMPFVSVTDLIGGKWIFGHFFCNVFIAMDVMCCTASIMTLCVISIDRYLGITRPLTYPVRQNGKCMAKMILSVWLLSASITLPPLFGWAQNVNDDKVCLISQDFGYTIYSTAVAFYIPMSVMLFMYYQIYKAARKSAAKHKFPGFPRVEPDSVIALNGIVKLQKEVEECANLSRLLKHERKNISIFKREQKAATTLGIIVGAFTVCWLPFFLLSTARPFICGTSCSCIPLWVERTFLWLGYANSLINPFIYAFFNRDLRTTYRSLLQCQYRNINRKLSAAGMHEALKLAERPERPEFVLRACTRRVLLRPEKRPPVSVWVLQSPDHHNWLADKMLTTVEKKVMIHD
Sequence of Alpha-2A adrenergic receptor (Homo sapiens) (P08913 whole entry): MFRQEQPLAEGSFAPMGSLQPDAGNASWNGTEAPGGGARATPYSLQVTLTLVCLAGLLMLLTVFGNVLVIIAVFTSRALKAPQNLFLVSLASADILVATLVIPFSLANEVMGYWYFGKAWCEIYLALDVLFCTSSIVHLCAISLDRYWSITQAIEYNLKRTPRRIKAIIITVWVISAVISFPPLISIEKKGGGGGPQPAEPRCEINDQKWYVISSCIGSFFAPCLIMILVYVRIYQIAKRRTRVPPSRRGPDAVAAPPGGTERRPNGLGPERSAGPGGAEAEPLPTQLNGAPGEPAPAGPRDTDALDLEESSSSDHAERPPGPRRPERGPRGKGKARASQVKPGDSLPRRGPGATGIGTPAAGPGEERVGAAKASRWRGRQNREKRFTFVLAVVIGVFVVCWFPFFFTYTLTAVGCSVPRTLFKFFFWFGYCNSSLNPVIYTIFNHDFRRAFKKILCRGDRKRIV
Sequence of 5-hydroxytryptamine receptor 5A (Homo sapiens) (P47898 whole entry): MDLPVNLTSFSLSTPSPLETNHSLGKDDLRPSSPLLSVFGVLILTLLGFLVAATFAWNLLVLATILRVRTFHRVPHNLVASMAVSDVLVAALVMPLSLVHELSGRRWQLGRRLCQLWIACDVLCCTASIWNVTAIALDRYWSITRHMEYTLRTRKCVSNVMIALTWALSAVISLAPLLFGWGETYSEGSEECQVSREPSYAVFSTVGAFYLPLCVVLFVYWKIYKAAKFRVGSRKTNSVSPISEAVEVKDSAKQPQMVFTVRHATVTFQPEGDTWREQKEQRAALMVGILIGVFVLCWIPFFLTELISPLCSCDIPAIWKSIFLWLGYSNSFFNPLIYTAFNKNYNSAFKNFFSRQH
Sequence of 5-hydroxytryptamine receptor 4 (Homo sapiens) (Q13639 whole entry): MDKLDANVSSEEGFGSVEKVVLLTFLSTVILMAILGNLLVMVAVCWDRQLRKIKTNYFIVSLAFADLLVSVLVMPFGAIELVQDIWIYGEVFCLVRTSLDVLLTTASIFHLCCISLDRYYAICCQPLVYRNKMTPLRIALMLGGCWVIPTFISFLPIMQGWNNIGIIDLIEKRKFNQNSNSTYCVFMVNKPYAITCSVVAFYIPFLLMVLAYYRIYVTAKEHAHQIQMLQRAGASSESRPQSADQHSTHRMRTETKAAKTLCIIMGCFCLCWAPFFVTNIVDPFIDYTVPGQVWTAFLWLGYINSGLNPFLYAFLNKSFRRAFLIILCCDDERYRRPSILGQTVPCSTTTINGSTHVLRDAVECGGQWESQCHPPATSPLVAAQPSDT
Sequence of Adenosine receptor A2a (Homo sapiens) (P29274 whole entry): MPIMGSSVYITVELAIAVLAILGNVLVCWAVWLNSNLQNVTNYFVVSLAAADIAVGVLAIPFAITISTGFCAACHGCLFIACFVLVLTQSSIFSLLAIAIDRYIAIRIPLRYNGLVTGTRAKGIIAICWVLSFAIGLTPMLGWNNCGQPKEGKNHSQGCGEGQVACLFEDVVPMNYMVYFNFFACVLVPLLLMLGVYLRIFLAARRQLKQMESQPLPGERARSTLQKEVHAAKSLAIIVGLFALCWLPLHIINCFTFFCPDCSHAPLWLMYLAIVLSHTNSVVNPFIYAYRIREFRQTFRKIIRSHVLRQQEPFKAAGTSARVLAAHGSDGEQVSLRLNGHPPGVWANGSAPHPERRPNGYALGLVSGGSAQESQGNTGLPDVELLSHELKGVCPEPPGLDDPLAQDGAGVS
Sequence of Alpha-1B adrenergic receptor (Homo sapiens) (P35368 whole entry): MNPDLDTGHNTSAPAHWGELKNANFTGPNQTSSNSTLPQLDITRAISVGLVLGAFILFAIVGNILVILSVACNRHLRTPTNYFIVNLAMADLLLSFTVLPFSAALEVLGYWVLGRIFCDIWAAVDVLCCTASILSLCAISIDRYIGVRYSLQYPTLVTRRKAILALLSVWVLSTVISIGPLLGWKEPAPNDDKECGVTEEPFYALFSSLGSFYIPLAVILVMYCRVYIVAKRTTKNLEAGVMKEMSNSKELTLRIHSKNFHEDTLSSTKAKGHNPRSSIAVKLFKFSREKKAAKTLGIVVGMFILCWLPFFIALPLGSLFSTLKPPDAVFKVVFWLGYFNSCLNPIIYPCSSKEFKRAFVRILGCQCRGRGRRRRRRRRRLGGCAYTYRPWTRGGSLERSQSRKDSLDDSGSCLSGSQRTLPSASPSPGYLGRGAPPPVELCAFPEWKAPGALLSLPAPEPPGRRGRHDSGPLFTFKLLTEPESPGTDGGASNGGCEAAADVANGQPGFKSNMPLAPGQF
Sequence of Nuclear receptor subfamily 1 group I member 2 (O75469 whole entry): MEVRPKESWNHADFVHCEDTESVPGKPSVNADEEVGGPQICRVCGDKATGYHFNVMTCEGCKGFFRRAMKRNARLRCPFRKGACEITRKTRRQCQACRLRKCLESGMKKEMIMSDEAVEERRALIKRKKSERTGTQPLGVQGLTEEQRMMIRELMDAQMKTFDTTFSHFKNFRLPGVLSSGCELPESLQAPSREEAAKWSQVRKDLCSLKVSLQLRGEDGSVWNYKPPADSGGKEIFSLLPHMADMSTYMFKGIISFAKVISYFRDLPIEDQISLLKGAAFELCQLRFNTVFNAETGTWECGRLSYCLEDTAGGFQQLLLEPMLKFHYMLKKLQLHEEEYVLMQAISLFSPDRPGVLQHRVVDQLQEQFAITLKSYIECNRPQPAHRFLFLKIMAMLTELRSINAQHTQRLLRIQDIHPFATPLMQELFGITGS
Sequence of Cysteinyl leukotriene receptor 2 (Homo sapiens) (Q9NS75 whole entry): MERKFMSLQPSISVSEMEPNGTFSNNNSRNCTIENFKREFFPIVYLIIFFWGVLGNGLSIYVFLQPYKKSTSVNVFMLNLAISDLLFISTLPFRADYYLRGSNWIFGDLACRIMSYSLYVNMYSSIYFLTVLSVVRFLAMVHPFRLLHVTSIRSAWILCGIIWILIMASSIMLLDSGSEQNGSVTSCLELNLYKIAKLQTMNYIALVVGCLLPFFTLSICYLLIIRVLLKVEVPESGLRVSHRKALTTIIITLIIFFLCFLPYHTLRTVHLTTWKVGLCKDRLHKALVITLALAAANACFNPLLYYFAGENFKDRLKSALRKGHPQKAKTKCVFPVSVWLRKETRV

What does the source list for CCOC(=O)N1[C@@H]2CC[C@H]1C[C@H](CN1CC[C@@H](N3Cc4ccccc4NC3=O)C1)C2?
Activity [1]: 1%; Activity [2]: 2%; Activity [3]: 51%; Activity [4]: Not Active; EC50 [5]: 14 nM; Activity [6]: 84%; Activity [7]: 2%; Activity [8]: 0.38%; Activity [9]: 0.82%; Activity [10]: -0.95%; Activity [11]: 0.07%; Activity [12]: -0.54%; Activity [13]: -1.12%; Activity [14]: 0.39%; inhibition [15]: -3.44%; inhibition [16]: 18.8%; inhibition [17]: -1.57%; inhibition [18]: 0.91%; inhibition [19]: 1.97%; inhibition [20]: -8.79%
